# Source: patent US12428415B2, “Matriptase 2 inhibitors and uses thereof” (Disc Medicine, Inc., priority 2018, dated 2025)
# Biological target: T1, Human Recombinant Matriptase 2 (Homo sapiens, UniProt Q8IU80)
# T1 construct: purchased Enzo Life Sciences (an in-house preparation was also used) ALX-201-752-1
# T1 sequence (Q8IU80 1-811): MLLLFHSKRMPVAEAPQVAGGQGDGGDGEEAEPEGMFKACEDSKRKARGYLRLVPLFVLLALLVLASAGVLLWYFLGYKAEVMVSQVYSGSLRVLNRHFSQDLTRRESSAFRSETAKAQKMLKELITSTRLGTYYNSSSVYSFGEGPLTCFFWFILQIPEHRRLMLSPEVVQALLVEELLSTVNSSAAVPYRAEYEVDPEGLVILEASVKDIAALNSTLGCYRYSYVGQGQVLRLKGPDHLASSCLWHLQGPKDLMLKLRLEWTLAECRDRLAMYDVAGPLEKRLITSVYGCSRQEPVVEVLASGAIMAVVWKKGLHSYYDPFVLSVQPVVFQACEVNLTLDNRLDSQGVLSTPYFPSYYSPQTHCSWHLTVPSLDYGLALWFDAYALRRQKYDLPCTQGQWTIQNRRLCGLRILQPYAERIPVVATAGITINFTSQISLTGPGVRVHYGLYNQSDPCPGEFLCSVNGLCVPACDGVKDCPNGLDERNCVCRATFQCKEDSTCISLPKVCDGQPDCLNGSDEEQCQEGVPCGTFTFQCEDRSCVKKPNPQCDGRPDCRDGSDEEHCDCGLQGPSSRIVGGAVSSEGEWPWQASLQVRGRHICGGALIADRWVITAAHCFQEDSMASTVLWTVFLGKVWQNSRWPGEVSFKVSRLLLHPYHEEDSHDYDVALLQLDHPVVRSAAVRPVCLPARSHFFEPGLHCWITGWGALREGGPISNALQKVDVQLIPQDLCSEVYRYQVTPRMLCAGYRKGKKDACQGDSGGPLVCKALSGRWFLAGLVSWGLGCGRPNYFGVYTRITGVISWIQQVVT
# Assay: Matriptase 2 fluorescence based inhibition assay, Method B (50 mM TRIS pH 7.5, 150 mM NaCl, 0.01% gelatin)
# Type: biochemical
# Conditions: 1 uM compound; Assay Used = B
# Procedure: Test compounds were evaluated for their potential to inhibit Human Recombinant Matriptase 2 (in-house and commercial protein from Enzo Life Sciences—cat log -ALX-201-752-1) using fluorescence based assay. The concentration of Recombinant Matriptase 2 and the substrate used in the assay was: 7 nM (commercial) and 15 nM (Inhouse Matriptase 2) and 100 μM (Boc-Gln-Ala-Arg-7-amido-4-methyl coumarin hydrobromide—Cat log: B4153-Sigma and I-1550 from Bachem) respectively. The assay buffer used was 50 mM TRIS pH 7.5, 150 mM NaCl, 0.01% gelatin (G1393 Sigma). The assay was performed using 384 well black flat bottom plate from grenier (Cat log: 781076) at 25° C. The enzyme and compound preincubated for 30 mins, plate was read 60 mins after substrate addition at wavelength Ex: 360/Em:480 nm. The final assay volume of was 20 μl. Stock solution of compounds were initially prepared in DMSO and appropriate dilutions were made for screening and IC50 determination (final DMSO conc in the assay was 1%). All the measurements were carried out using the Spectramax M5, Molecular devices. The compounds were screened at 1 and 10 μM concentration and IC50 was determined for the interested compounds.
# To determine IC50 values, dose response curves were generated by plotting percentage inhibition as a function of inhibitor concentration and the data was fitted to sigmoidal non-linear regression equation (variable slope) using Graph Pad prism software V7.
row,Mar-2 % inhibition at 1 uM,SMILES
1,A (A represents 0%≤I≤25%),"CC(C)(C)OC(=O)N[C@H]1CC[C@H](NC(=O)c2cc3ccc(C(=N)N)cc3n2Cc2ccc3ccccc3c2)CC1 [Compound I-402, tert-butyl ((1r,4r)-4-(6-carbamimidoyl-1-(naphthalen-2-ylmethyl)-1H-indole-2-carboxamido)cyclohexyl) carbamate]"
2,A (A represents 0%≤I≤25%),CC(C)(C)OC(=O)N[C@H]1CC[C@H](NC(=O)c2cc3ccc(C(=N)N)cc3n2Cc2cccc3ccccc23)CC1 [Compound I-403]

# Same assay, conditions: 1 uM compound; Assay Used = B (Method B); read-out: Mar-2 % inhibition at 1 uM
row,inhibition at 1 µM [%],SMILES
1,25 to 50,N=C(N)c1ccc2cc(C(=O)N[C@H]3CC[C@H](N)CC3)n(C[C@H]3CCCc4ccccc43)c2c1 (racemic) [Compound I-612]
2,25 to 50,N=C(N)c1ccc2cc(C(=O)O)n(C[C@H]3CCCc4ccccc43)c2c1 (racemic) [Compound I-613]
3,25 to 50,N=C(N)c1ccc2cc(C(=O)N[C@H]3CC[C@H](N)CC3)n(C[C@H]3CCc4ccccc43)c2c1 (racemic) [Compound I-616]

# Same assay, conditions: 1 uM compound; Assay Used = B; read-out: Mar-2 % inhibition at 1 uM
row,inhibition at 1 µM [%],SMILES
1,50 to 75,N=C(N)c1ccc2cc(C(=O)NC3CCNC(=O)C3)n(Cc3cc(Oc4ncccn4)cc4ccccc34)c2c1 (racemic) [Compound I-560]
2,0 to 25,CC(C)(C)OC(=O)NC(=N)c1ccc2cc(C(=O)N3CC[C@H](O)C3)n(Cc3cccc4ccccc34)c2c1 (stereo in doubt) [Compound I-424]
3,0 to 25,CC(C)(C)OC(=O)NC(=N)c1ccc2cc(C(=O)N3CC[C@H](NC(=O)OC(C)(C)C)C3)n(Cc3cccc4ccccc34)c2c1 (stereo in doubt) [Compound I-428]
4,25 to 50,N=C(N)c1ccc2cc(C(=O)NC34CC5C[C@H](C3)C[C@](O)(C5)C4)n(Cc3cccc4ccccc34)c2c1 (stereo in doubt) [Compound I-449]
5,0 to 25,CC(C)(C)OC(=O)N[C@H]1CC[C@H](NC(=O)c2cc3ccc(C(=N)N)cc3n2CCc2cccc3ccccc23)CC1 [Compound I-404]
6,25 to 50,CC(C)(C)OC(=O)N[C@H]1CC[C@H](NC(=O)c2cc3ccc(C(=N)N)cc3n2CCc2ccc3ccccc3c2)CC1 [Compound I-405]
7,75 to 100,N=C(N)c1ccc2cc(C(=O)N[C@H]3CC[C@H](N)CC3)n(Cc3cccc4ccccc34)c2c1 [Compound I-407]
8,25 to 50,N=C(N)c1ccc2cc(C(=O)N[C@H]3CC[C@H](N)CC3)n(CCc3cccc4ccccc34)c2c1 [Compound I-409]
9,25 to 50,N=C(N)c1ccc2cc(C(=O)N[C@H]3CC[C@H](N)CC3)n(CCc3ccc4ccccc4c3)c2c1 [Compound I-410]
10,0 to 25,"CCNC(=N)c1ccc2cc(C(=O)N[C@H]3CC[C@H](NC(=O)OC(C)(C)C)CC3)n(Cc3ccc4ccccc4c3)c2c1 [Compound I-411, Tert-butyl ((1r,4r)-4-(6-(N-ethylcarbamimidoyl)-1-(naphthalen-2-ylmethyl)-1H-indole-2-carboxamido)cyclohexyl)carbamate]"
11,25 to 50,CNC(=N)c1ccc2cc(C(=O)NC3CCC(NC(=O)OC(C)(C)C)CC3)n(Cc3ccc4ccccc4c3)c2c1 (centres unmarked) [Compound I-412]
12,25 to 50,"CCNC(=N)c1ccc2cc(C(=O)N[C@H]3CC[C@H](N)CC3)n(Cc3ccc4ccccc4c3)c2c1 [Compound I-413, N-((1r,4r)-4-aminocyclohexyl)-6-(N-ethylcarbamimidoyl)-1-(naphthalen-2-ylmethyl)-1H-indole-2-carboxamide]"
13,0 to 25,CNC(=N)c1ccc2cc(C(=O)N[C@H]3CC[C@H](N)CC3)n(Cc3ccc4ccccc4c3)c2c1 [Compound I-414]
14,25 to 50,"N=C(N)c1ccc2cc(C(=O)N[C@H]3CC[C@H](N)CC3)n(-c3cccc4ccccc34)c2c1 [Compound I-415, N-((1r,4r)-4-aminocyclohexyl)-6-carbamimidoyl-1-(naphthalen-1-yl)-1H-indole-2-carboxamide]"
15,0 to 25,CC(C)(C)OC(=O)N[C@H]1CC[C@H](NC(=O)c2cc3ccc(C(=N)N)cc3n2-c2ccc3ccccc3c2)CC1 [Compound I-416]
16,0 to 25,"NC(=O)c1ccc2cc(C(=O)N[C@H]3CC[C@H](N)CC3)n(-c3cccc4ccccc34)c2c1 [Compound I-417, N2-((1r,4r)-4-aminocyclohexyl)-1-(naphthalen-1-yl)-1H-indole-2,6-dicarboxamide]"

row,inhibition at 1 µM [%],SMILES
1,75 to 100,"N=C(N)c1ccc2cc(C(=O)NC3CCNCC3)n(Cc3cccc4ccccc34)c2c1 [Compound I-418, 6-carbamimidoyl-1-(naphthalen-1-ylmethyl)-N-(piperidin-4-yl)-1H-indole-2-carboxamide]"
2,0 to 25,CC(C)(C)OC(=O)NC(=N)c1ccc2cc(C(=O)Nc3ccc(NC(=O)c4ccccn4)cc3)n(Cc3cccc4ccccc34)c2c1 [Compound I-419]
3,0 to 25,CCOC(=O)N1CCC(NC(=O)c2cc3ccc(C(=N)NC(=O)OC(C)(C)C)cc3n2Cc2cccc3ccccc23)CC1 [Compound I-420]
4,0 to 25,CC(C)(C)OC(=O)NC(=N)c1ccc2cc(C(=O)NCc3ccc(CO)cc3)n(Cc3cccc4ccccc34)c2c1 [Compound I-421]
5,25 to 50,CC(C)(C)OC(=O)NC(=N)c1ccc2cc(C(=O)N[C@H]3CC[C@H](O)CC3)n(Cc3cccc4ccccc34)c2c1 [Compound I-422]
6,0 to 25,CC(C)(C)OC(=O)NC(=N)c1ccc2cc(C(=O)N3CCCN(C(=O)OC(C)(C)C)CC3)n(Cc3cccc4ccccc34)c2c1 [Compound I-423]
7,0 to 25,CN1CCN(C(=O)c2cc3ccc(C(=N)NC(=O)OC(C)(C)C)cc3n2Cc2cccc3ccccc23)CC1 [Compound I-425]
8,0 to 25,CC(C)(C)OC(=O)NC(=N)c1ccc2cc(C(=O)N3CCC(CO)CC3)n(Cc3cccc4ccccc34)c2c1 [Compound I-426]
9,0 to 25,CC(C)(C)OC(=O)NC(=N)c1ccc2cc(C(=O)NC3CCCN(C(=O)OC(C)(C)C)C3)n(Cc3cccc4ccccc34)c2c1 (centres unmarked) [Compound I-427]
10,50 to 75,N=C(N)c1ccc2cc(C(=O)N3CCC(CN)CC3)n(Cc3cccc4ccccc34)c2c1 [Compound I-429]
11,50 to 75,N=C(N)c1ccc2cc(C(=O)Nc3ccc(NC(=O)c4ccccn4)cc3)n(Cc3cccc4ccccc34)c2c1 [Compound I-430]
12,50 to 75,N=C(N)c1ccc2cc(C(=O)N3CCN(C(=O)CN)CC3)n(Cc3cccc4ccccc34)c2c1 [Compound I-431]
13,75 to 100,CN1CCC(NC(=O)c2cc3ccc(C(=N)N)cc3n2Cc2cccc3ccccc23)CC1 [Compound I-432]
14,75 to 100,N=C(N)c1ccc2cc(C(=O)N[C@@H]3CCNC3)n(Cc3cccc4ccccc34)c2c1 [Compound I-433]
15,75 to 100,CCOC(=O)N1CCC(NC(=O)c2cc3ccc(C(=N)N)cc3n2Cc2cccc3ccccc23)CC1 [Compound I-434]
16,50 to 75,N=C(N)c1ccc2cc(C(=O)NCc3ccc(CO)cc3)n(Cc3cccc4ccccc34)c2c1 [Compound I-435]

# Same assay, conditions: 1 uM; Assay Used B; read-out: Mar-2 % inhibition at 1 uM
row,inhibition at 1 µM [%],SMILES
1,0 to 25,N=C(N)c1ccc2cc(C(=O)N[C@H]3CC[C@H](N)CC3)n(S(=O)(=O)c3ccc4ccccc4c3)c2c1 [Compound I-37]

# Same assay, conditions: at 1 uM; Assay Used = B; read-out: Mar-2 % inhibition at 1 uM
row,inhibition at 1 µM [%],SMILES
1,25 to 50,N=C(N)c1ccc2cc(C(=O)N[C@H]3CC[C@H](N)CC3)n(Cc3ccc4ccccc4c3)c2c1 [Compound I-233]
2,75 to 100,N=C(N)c1ccc(CNC(=O)c2cc3ccc(C(=N)N)cc3n2Cc2cccc3ccccc23)cc1 [Compound I-395]
3,25 to 50,"N=C(N)c1ccc2cc(C(=O)N[C@H]3CC[C@H](N)CC3)n(S(=O)(=O)c3cccc4ccccc34)c2c1 [Compound I-396, N-((1r,4r)-4-aminocyclohexyl)-6-carbamimidoyl-1-(naphthalen-1-ylsulfonyl)-1H-indole-2-carboxamide]"
